pIC50: −log10 of the molar value.
System: 186277-243-T-J2-PDC complex spheroid growth
Assay: Anticancer human tumor 186277-243-T-J2-PDC patient-derived colon adenocarcinoma cell line growth inhibition [AhR]
Conditions: for pIC50: curve of first compound; for viability, T/C: stronger effect = lower value
Outline: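 Spheroids combined tumor cells with HUVEC endothelial cells and human MSCs as stroma. AhR antagonists were paired with standard or investigational drugs, each dosed in half-log steps down from near clinical Cmax, or from 10 microM where Cmax was unknown.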

[1] = second compound 0.1 µM, first compound 0.0316 µM
[2] = second compound 0.1 µM, first compound 0.1 µM
[3] = second compound 0.1 µM, first compound 0.316 µM
[4] = second compound 0.1 µM, first compound 1 µM
[5] = second compound 0.1 µM, first compound 3.16 µM
[6] = second compound 0.1 µM, first compound 10 µM
[7] = second compound 0.316 µM, first compound 0.0316 µM
[8] = second compound 0.316 µM, first compound 0.1 µM
[9] = second compound 0.316 µM, first compound 0.316 µM
[10] = second compound 0.316 µM, first compound 1 µM
[11] = second compound 0.316 µM, first compound 3.16 µM
[12] = second compound 0.316 µM, first compound 10 µM
[13] = second compound 1 µM, first compound 0.0316 µM
[14] = second compound 1 µM, first compound 0.1 µM
[15] = second compound 1 µM, first compound 0.316 µM
[16] = second compound 1 µM, first compound 1 µM
[17] = second compound 1 µM, first compound 3.16 µM
[18] = second compound 1 µM, first compound 10 µM
[19] = second compound 3.16 µM, first compound 0.0316 µM
[20] = second compound 3.16 µM, first compound 0.1 µM
[21] = second compound 3.16 µM, first compound 0.316 µM
[22] = second compound 3.16 µM, first compound 1 µM
[23] = second compound 3.16 µM, first compound 3.16 µM
[24] = second compound 3.16 µM, first compound 10 µM
[25] = second compound 10 µM, first compound 0.0316 µM
[26] = second compound 10 µM, first compound 0.1 µM
[27] = second compound 10 µM, first compound 0.316 µM
[28] = second compound 10 µM, first compound 1 µM
[29] = second compound 10 µM, first compound 3.16 µM
[30] = second compound 10 µM, first compound 10 µM
[31] = second compound 0.1 µM, first compound 0.00949 µM
[32] = second compound 0.1 µM, first compound 0.03 µM
[33] = second compound 0.1 µM, first compound 0.0949 µM
[34] = second compound 0.1 µM, first compound 0.3 µM
[35] = second compound 0.316 µM, first compound 0.00949 µM
[36] = second compound 0.316 µM, first compound 0.03 µM
[37] = second compound 0.316 µM, first compound 0.0949 µM
[38] = second compound 0.316 µM, first compound 0.3 µM
[39] = second compound 1 µM, first compound 0.00949 µM
[40] = second compound 1 µM, first compound 0.03 µM
[41] = second compound 1 µM, first compound 0.0949 µM
[42] = second compound 1 µM, first compound 0.3 µM
[43] = second compound 3.16 µM, first compound 0.00949 µM
[44] = second compound 3.16 µM, first compound 0.03 µM
[45] = second compound 3.16 µM, first compound 0.0949 µM
[46] = second compound 3.16 µM, first compound 0.3 µM
[47] = second compound 10 µM, first compound 0.00949 µM
[48] = second compound 10 µM, first compound 0.03 µM
[49] = second compound 10 µM, first compound 0.0949 µM
[50] = second compound 10 µM, first compound 0.3 µM
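Also: spheroids exposed to compounds for seven days before the viability read.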
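For viability, T/C in this document: luminescent signal used as a stand-in for viable cell amount; 100% = DMSO vehicle control wells.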

CC1(C)CCC(CN2CCN(c3ccc(C(=O)NS(=O)(=O)c4ccc(NCC5CCOCC5)c([N+](=O)[O-])c4)c(Oc4cnc5[nH]ccc5c4)c3)CC2)=C(c2ccc(Cl)cc2)C1 + CC(CO)NC(=O)c1cc(-c2ccc(Cl)cc2)nn(-c2cnn(C)c2)c1=O
pIC50 (second compound 0.1 µM): 5.27 | pIC50 (second compound 0.316 µM): 5.23 | pIC50 (second compound 1 µM): 5.24 | pIC50 (second compound 3.16 µM): 5.25 | pIC50 (second compound 10 µM): 5.32 | viability, T/C [1]: 99.3% | viability, T/C [2]: 113% | viability, T/C [3]: 102% | viability, T/C [4]: 101% | viability, T/C [5]: 84.8% | viability, T/C [6]: 10.5% | viability, T/C [7]: 108% | viability, T/C [8]: 94.8% | viability, T/C [9]: 96.7% | viability, T/C [10]: 94.2% | viability, T/C [11]: 96.2% | viability, T/C [12]: 11.8% | viability, T/C [13]: 112% | viability, T/C [14]: 98.4% | viability, T/C [15]: 109% | viability, T/C [16]: 95.8% | viability, T/C [17]: 92.1% | viability, T/C [18]: 10.1% | viability, T/C [19]: 95.2% | viability, T/C [20]: 85.8% | viability, T/C [21]: 83.1% | viability, T/C [22]: 94.2% | viability, T/C [23]: 88.1% | viability, T/C [24]: 10.2% | viability, T/C [25]: 77.5% | viability, T/C [26]: 96.7% | viability, T/C [27]: 83.9% | viability, T/C [28]: 78.7% | viability, T/C [29]: 74.4% | viability, T/C [30]: 9.34%

CC1COCCN1c1cc(C2(S(C)(=N)=O)CC2)nc(-c2ccnc3[nH]ccc23)n1 (stereo not given) + CC(CO)NC(=O)c1cc(-c2ccc(Cl)cc2)nn(-c2cnn(C)c2)c1=O
pIC50 (second compound 0.1 µM): 6.05 | pIC50 (second compound 0.316 µM): 6.05 | pIC50 (second compound 1 µM): 6.10 | pIC50 (second compound 3.16 µM): 6.13 | pIC50 (second compound 10 µM): 6.21 | viability, T/C [1]: 99.5% | viability, T/C [2]: 97.3% | viability, T/C [3]: 86% | viability, T/C [4]: 47% | viability, T/C [5]: 5.74% | viability, T/C [6]: 3.37% | viability, T/C [7]: 97.9% | viability, T/C [8]: 101% | viability, T/C [9]: 87.3% | viability, T/C [10]: 47.1% | viability, T/C [11]: 6.52% | viability, T/C [12]: 3.04% | viability, T/C [13]: 109% | viability, T/C [14]: 92.8% | viability, T/C [15]: 89.8% | viability, T/C [16]: 41.1% | viability, T/C [17]: 5.47% | viability, T/C [18]: 2.94% | viability, T/C [19]: 91.1% | viability, T/C [20]: 90.9% | viability, T/C [21]: 76.9% | viability, T/C [22]: 41% | viability, T/C [23]: 5.43% | viability, T/C [24]: 2.86% | viability, T/C [25]: 76.3% | viability, T/C [26]: 75.9% | viability, T/C [27]: 71.8% | viability, T/C [28]: 33.7% | viability, T/C [29]: 6.79% | viability, T/C [30]: 3.4%

CCN(c1cc(-c2ccc(CN3CCOCC3)cc2)cc(C(=O)NCc2c(C)cc(C)[nH]c2=O)c1C)C1CCOCC1 + CC(CO)NC(=O)c1cc(-c2ccc(Cl)cc2)nn(-c2cnn(C)c2)c1=O
pIC50 (second compound 0.1 µM): < 5.52 | pIC50 (second compound 0.316 µM): < 5.52 | pIC50 (second compound 1 µM): < 5.52 | pIC50 (second compound 3.16 µM): < 5.52 | pIC50 (second compound 10 µM): < 5.52 | viability, T/C [31]: 97.8% | viability, T/C [32]: 106% | viability, T/C [33]: 82.9% | viability, T/C [34]: 94.5% | viability, T/C (second compound 0.1 µM, first compound 0.949 µM): 102% | viability, T/C (second compound 0.1 µM, first compound 3 µM): 85.1% | viability, T/C [35]: 109% | viability, T/C [36]: 95.8% | viability, T/C [37]: 89.8% | viability, T/C [38]: 93.3% | viability, T/C (second compound 0.316 µM, first compound 0.949 µM): 90.3% | viability, T/C (second compound 0.316 µM, first compound 3 µM): 91.9% | viability, T/C [39]: 83.5% | viability, T/C [40]: 90.5% | viability, T/C [41]: 88.2% | viability, T/C [42]: 87.8% | viability, T/C (second compound 1 µM, first compound 0.949 µM): 82.2% | viability, T/C (second compound 1 µM, first compound 3 µM): 101% | viability, T/C [43]: 96.5% | viability, T/C [44]: 101% | viability, T/C [45]: 89.4% | viability, T/C [46]: 80.7% | viability, T/C (second compound 3.16 µM, first compound 0.949 µM): 92.3% | viability, T/C (second compound 3.16 µM, first compound 3 µM): 85.8% | viability, T/C [47]: 88.5% | viability, T/C [48]: 69.8% | viability, T/C [49]: 80.5% | viability, T/C [50]: 87.4% | viability, T/C (second compound 10 µM, first compound 0.949 µM): 73.5% | viability, T/C (second compound 10 µM, first compound 3 µM): 82.6%

Nc1ncn(C2CC(O)C(CO)S2)c(=O)n1 (stereo not given) + CC(CO)NC(=O)c1cc(-c2ccc(Cl)cc2)nn(-c2cnn(C)c2)c1=O
pIC50 (second compound 0.1 µM): 6.86 | pIC50 (second compound 0.316 µM): 6.93 | pIC50 (second compound 1 µM): 6.88 | pIC50 (second compound 3.16 µM): 6.85 | pIC50 (second compound 10 µM): 6.93 | viability, T/C (second compound 0.1 µM, first compound 0.000949 µM): 101% | viability, T/C (second compound 0.1 µM, first compound 0.003 µM): 94.8% | viability, T/C [31]: 93% | viability, T/C [32]: 85.6% | viability, T/C [33]: 59.6% | viability, T/C [34]: 29.9% | viability, T/C (second compound 0.316 µM, first compound 0.000949 µM): 83.6% | viability, T/C (second compound 0.316 µM, first compound 0.003 µM): 92.8% | viability, T/C [35]: 92.8% | viability, T/C [36]: 93.1% | viability, T/C [37]: 55% | viability, T/C [38]: 29.1% | viability, T/C (second compound 1 µM, first compound 0.000949 µM): 102% | viability, T/C (second compound 1 µM, first compound 0.003 µM): 100% | viability, T/C [39]: 99.4% | viability, T/C [40]: 94.2% | viability, T/C [41]: 56.7% | viability, T/C [42]: 33.1% | viability, T/C (second compound 3.16 µM, first compound 0.000949 µM): 82% | viability, T/C (second compound 3.16 µM, first compound 0.003 µM): 93% | viability, T/C [43]: 92% | viability, T/C [44]: 85% | viability, T/C [45]: 59.8% | viability, T/C [46]: 32% | viability, T/C (second compound 10 µM, first compound 0.000949 µM): 89.1% | viability, T/C (second compound 10 µM, first compound 0.003 µM): 75.1% | viability, T/C [47]: 89.1% | viability, T/C [48]: 66.8% | viability, T/C [49]: 55.1% | viability, T/C [50]: 34.2%

From PubChem BioAssay AID1918991 (Molecular Pharmacology Branch, DTP, NCI, 2023)
